Data on three sequences can be found in patent US10253075B2, “WT1 antigenic polypeptide, and anti-tumor agent containing said polypeptide” (Tella, Inc., priority 2014, dated 2019).

What all share (assay type): cell-based, human
Experiment [1] deals with CD4-positive T cells (Th cells). Put plainly: Induction of antigen-specific Th cells from PBMC; IFN-γ intracellular staining (ICS). Also noted: key to induction of antigen-specific T cells: The symbol “+” in Table 7 indicates that the induction of antigen-specific T cells was observed; the symbol “−” indicates that the induction of antigen-specific T cells was not observed. The note with it: for best peptide (%) / induction efficiency (%): CD4; for best peptide (%): percentage of the 6 kinds of PBMCs in which the peptide was evaluated as best peptide; for induction efficiency (%): proportion of the 6 kinds of donor PBMCs induced to antigen-specific T cells; for induction of antigen-specific T cells: induced T cell CD4, polypeptide 5 μM, IFN-γ-producing cells, day 21; for best peptide: highest ratio of antigen-specific IFN-γ-producing cells. The protocol: (§1) From the blood that was donated from 6 healthy human volunteers, human peripheral blood mononuclear cells (PBMC) were separated using a Ficoll-Paque (manufactured by Amersham Bioscience Inc.). The separated PBMC was cultured at 37° C. for 1 hour in a cell culture flask (manufactured by ED Biosciences) in a CO2 incubator using a serum-free AIM-V medium, thereby to remove non-adherent cells. Then, adherent cells remaining on the flask were started to culture in the AIM-V medium in the presence of a recombinant GM-CSF (10 ng/ml, manufactured by Wako Company) and a recombinant IL-4 (10 ng/ml, manufactured by Wako Company). After 3 days from the start of culture, the medium was replaced by an AIM-V medium supplemented with GM-CSF and IL-4, and dendritic cells (DC) were recovered using trypsin after 7 days from the start of culture. These DCs were used as antigen-presenting cells (APC) in the induction of antigen-specific T cells or in the analysis of antigen-specific cytokine (IFN-γ) production from T cells.
(§2) The foregoing PBMCs separated from healthy human volunteers were seeded to a density of 2×10^6 cells/well in a 24-well plate (manufactured by BD Biosciences). Then, culturing the cells were started in an AIM-V medium (1 ml/well) supplemented with each polypeptide (5 μM) derived from the WT1 protein described above inducing antigen-specific T cells, and serum at 37° C. in a CO2 incubator.
(§3) After 7 days from the start of culture, the above DC (autologous DC) was added to PBMC having the same derivation. Further, the medium was replaced with a serum-free AIM-V medium (manufactured by Life Technologies Inc.) supplemented with OK-432 (0.1 KE/ml, trade name: picibanil, manufactured by Chugai Pharmaceutical Co., Ltd.), and culture was performed for 2 hours. It should be noted that picibanil (OK-432) is a formulation obtained by treating an attenuated natural mutant strain (Su strain) of Group A Streptococcus with penicillin, and it is known that various cytokines (immune factor) are produced with use of picibanil to elicit an immune enhancing effect.
(§4) Then, after 2 hours of culture, the cells were treated for 50 minutes with addition of mitomycin C (MMC, manufactured by Kyowa Hakko Kirin Co., Ltd.). Furthermore, co-culture was performed in an AIM-V medium containing autologous DC and 5% human AB serum in which T cells are inactivated (Hokkaido Red Cross Center) in the presence of each polypeptide (5 μM) for inducing the antigen-specific T cells, thereby to re-stimulate the T cells. Two days later, a recombinant IL-2 (manufactured by Shionogi Pharmaceutical Institute Co., Ltd.) was added thereto to a final concentration of 10 U/ml. After 14 days from the start of co-culture, the autologous DC was pulsed with each polypeptide (5 μM) for inducing the antigen-specific T cells for 2 hours, and then treated with MMC. Such MMC treated cells as APC were used for re-stimulating T cells. In addition, on or after 14 days from the start of co-culture, culture was performed at the concentration of 20 U/ml of recombinant IL-2. After that, T cells on day 21 of the co-culture were collected by centrifugation or the like and subjected to an analysis of antigen-specific reactivity shown below.
(§5) T cells that were induced as described above (T cells on day 21 of the co-culture) and autologous DCs were seeded in the same well of a 96-well plate (manufactured by BD Biosciences) to a density of 5×10^4 cells/well and 5×10^3 cells/well, respectively. Then, the cells were cultured in the presence of each polypeptide (HE 4, KE 1, KE 5, H/K-HELP 1, H/K-HELP 2 or H/K-HELP 3) (5 μM) for the analysis of antigen-specific reactivity. In addition, a group without addition of such polypeptide was prepared as a control group. […]

Experiment [2] relates to CD4-positive T cells and CD8-positive T cells. In words: Induction of antigen-specific T cells from PBMC, CD4 and CD8 taken together. To be noted: for best peptide (%): CD4 + CD8, percentage of PBMCs in which the peptide was evaluated as best peptide. The protocol:
as §1, §2, §3
Then, after 2 hours of culture, the cells were treated for 50 minutes with addition of mitomycin C (MMC, manufactured by Kyowa Hakko Kirin Co., Ltd.). Furthermore, co-culture was performed in an AIM-V medium containing autologous DC and 5% human AB serum in which T cells are inactivated (Hokkaido Red Cross Center) in the presence of each polypeptide (5 μM) for inducing the antigen-specific T cells, thereby to re-stimulate the T cells. Two days later, a recombinant IL-2 (manufactured by Shionogi Pharmaceutical Institute Co., Ltd.) was added thereto to a final concentration of 10 U/ml. […]

Experiment [3] has as its system CD8-positive T cells (CTL). Put plainly: Induction of antigen-specific CTL from PBMC; IFN-γ intracellular staining (ICS). Also noted: key to induction of antigen-specific T cells: The symbol “+” in Table 7 indicates that the induction of antigen-specific T cells was observed; the symbol “−” indicates that the induction of antigen-specific T cells was not observed. The note with it: for best peptide (%) / induction efficiency (%): CD8; for best peptide (%): percentage of the 6 kinds of PBMCs in which the peptide was evaluated as best peptide; for induction efficiency (%): proportion of the 6 kinds of donor PBMCs induced to antigen-specific T cells; for induction of antigen-specific T cells: induced T cell CD8, polypeptide 5 μM, IFN-γ-producing cells, day 21; for best peptide: highest ratio of antigen-specific IFN-γ-producing cells. As for the experimental part: as §1, §2, §3, §4, §5

With “KRYFKLSHLQMHSRKHGGGGGRMFPNAPYL (Fusion polypeptide in which HE4, 5-Glycine linker and KE1 are fused in this order from the N-terminal) [H/K-HELP1, fused polypeptide: HE4, five-glycine linker, KE1 from the N-terminus]”, the “best peptide (%)” value in experiment [1], in experiment [2] and in experiment [3] was 0.00% throughout. Also, the “induction efficiency (%)” value in experiment [1] is listed as 33.33%; in experiment [3], 16.67%. Further, the “induction of antigen-specific T cells” value is given as “+” in experiment [1] (donor 1 PBMC); “−” in experiment [1] (donor 2 PBMC); “−” in experiment [1] (donor 3 PBMC); “−” in experiment [1] (donor 4 PBMC); “+” in experiment [1] (donor 5 PBMC); “−” in experiment [1] (donor 6 PBMC). Moreover, the “induction of antigen-specific T cells” value is “−” in experiment [3] (donor 1 PBMC); “−” in experiment [3] (donor 2 PBMC); “−” in experiment [3] (donor 3 PBMC); “−” in experiment [3] (donor 4 PBMC); “+” in experiment [3] (donor 5 PBMC); “−” in experiment [3] (donor 6 PBMC). In addition, the “activity of inducing antigen-specific T cells in CD4-positive and CD8-positive T cells, comparison in words” value in experiment [2] (compared with Comparative Example 1 (mix of the epitopes), 6 donors) is given as “not different from those of Comparative Example 1”.
As to “KRYFKLSHLQMHSRKHGGGGGRMFPNAPYLGGGGGCYTWNQMNL (Fusion polypeptide in which HE4, 5-Glycine linker, KE1, 5-Glycine linker and KE5 are fused in this order from the N-terminal) [H/K-HELP2, fused polypeptide: HE 4, KE 1 and KE 5 from the N-terminus with five-glycine linkers]”, the “best peptide (%)” value in experiment [1], in experiment [2] and in experiment [3] was 33.33% in each case. The “induction efficiency (%)” value in experiment [1] and in experiment [3] was 50.00% each time. Also, the “induction of antigen-specific T cells” value in experiment [1] (donor 1 PBMC) is “−”; in experiment [1] (donor 2 PBMC) it was “+”; in experiment [1] (donor 3 PBMC), “+”; in experiment [1] (donor 4 PBMC), “−”; in experiment [1] (donor 5 PBMC), “+”; in experiment [1] (donor 6 PBMC), “−”. The “induction of antigen-specific T cells” value was “+” in experiment [3] (donor 1 PBMC); “−” in experiment [3] (donor 2 PBMC); “+” in experiment [3] (donor 3 PBMC); “−” in experiment [3] (donor 4 PBMC); “−” in experiment [3] (donor 5 PBMC); “+” in experiment [3] (donor 6 PBMC). For the same sequence, the best peptide entry is given as “H/K-HELP2” in experiment [1] (donor 2, CD4); “H/K-HELP2” in experiment [1] (donor 3, CD4); “H/K-HELP2” in experiment [3] (donor 1, CD8); “H/K-HELP2” in experiment [3] (donor 6, CD8).
As for “RMFPNAPYLGGGGGKRYFKLSHLQMHSRKHGGGGGCYTWNQMNL (Fusion polypeptide in which KE1, 5-Glycine linker, HE4, 5-Glycine linker and KE5 are fused in this order from the N-terminal) [H/K-HELP3, fused polypeptide: KE 1, HE 4 and KE 5 from the N-terminus with five-glycine linkers]”, the “best peptide (%)” value in experiment [1], in experiment [2] and in experiment [3] was 50.00% each time. Also, the “induction efficiency (%)” value amounted to 66.67% in experiment [1] and 50.00% in experiment [3]. Besides, the “stimulation of CD4-positive T cells of different derivation to induce IFN-γ-producing Th1 cells, comparison in words” value in experiment [1] (compared with Example 1, 6 donors) is on record as “more numerous CD4-positive T cells of different derivation are stimulated, as compared to Example 1”. The best peptide entry is on record as “H/K-HELP3” in experiment [1] (donor 1, CD4); “H/K-HELP3” in experiment [1] (donor 4, CD4); “H/K-HELP3” in experiment [1] (donor 5, CD4); “H/K-HELP3” in experiment [3] (donor 3, CD8); “H/K-HELP3” in experiment [3] (donor 4, CD8); “H/K-HELP3” in experiment [3] (donor 5, CD8). Further, the “induction of antigen-specific T cells” value was “+” in experiment [1] (donor 1 PBMC); “−” in experiment [1] (donor 2 PBMC); “+” in experiment [1] (donor 3 PBMC); “+” in experiment [1] (donor 4 PBMC); “+” in experiment [1] (donor 5 PBMC); “−” in experiment [1] (donor 6 PBMC). Further, the “induction of antigen-specific T cells” value in experiment [3] (donor 1 PBMC) is listed as “−”; in experiment [3] (donor 2 PBMC), “−”; in experiment [3] (donor 3 PBMC) it was “+”; in experiment [3] (donor 4 PBMC), “+”; in experiment [3] (donor 5 PBMC) it was “+”; in experiment [3] (donor 6 PBMC), “−”.
